# From patent US20110230481A2, “DERIVATIVES OF TETRABROMOBENZIMIDAZOLE, A PROCESS FOR THE PREPARATION THEREOF, A PHARMACEUTICAL COMPOSITION COMPRISING THE SAME, A METHOD OF USING THE SAME, A METHOD FOR MODULATING OR REGULATING SERINE/THREONINE KINASES, AND SERINE/THREONINE KINASES MODULATING AGENT” (SELVITA S.A., priority 2009, published 2011)
# Experiments:
# panel of 440 kinases = experiment: KINOMEscan Max, whole panel; format: binding, human; details: 1 μM
# Method: Kinase panel profiling was performed at Ambit Kinomescan (http://www.ambitbio.com/technology/) using the “KINOMEscan™ Max” assay platform, a high-throughput method for screening small molecule compounds against large numbers of human kinases. KINOMEscan™ is based on a competition binding assay that quantitatively measures the ability of a compound to compete with an immobilized, active-site directed ligand. The assay is performed by combining three components: DNA-tagged kinase; immobilized ligand; and a test compound. The ability of the test compound to compete with the immobilized ligand is measured via quantitative PCR of the DNA tag. For a description of Ambit's assay protocol, see Fabian et al. A small molecule-kinase interaction map for clinical kinase inhibitors. Nat. Biotechnol. 23, 329-336 (2005).
# Selectivity of kinase inhibition is one of the key parameters in therapeutic use of this class of compounds. Off-target inhibition could be one of the major safety and toxicity issues in drug development and use of the compounds for treatment of various disease conditions. For this reason, development of selective kinase inhibitors is desired, to limit possible adverse effects. Therefore compounds disclosed in the application were tested on a panel of 440 kinases to determine specificity in PIM kinase inhibition. Table 5 provides selectivity data for representative compound N-(3-aminopropyl)-4,5,6,7-tetrabromo-1H-benzo[d]imidazol-2-amine (compound 11). As indicated in the Table 5 when tested at 1 μM concentration N-(3-aminopropyl)-4,5,6,7-tetrabromo-1H-benzo[d]imidazol-2-amine inhibited substrate biding of only 12 kinases (2% of the whole panel)>90%, whereas for over 93% of the tested kinases in the panel, substrate binding was basically not affected by compound 11. Pim kinases, but also HIPK, DYRK and CLK kinases and FTL3 mutants were identified as the primary targets for inhibition by compound 11 and selectivity for Pim kinases over other kinases was further confirmed in radiometric kinase assays.
Compound,number of kinases with substrate binding inhibited >90% (panel of 440 kinases),share of tested kinases with substrate binding basically not affected (panel of 440 kinases),share of the whole panel with substrate binding inhibited >90% (panel of 440 kinases) [%],Solubility [mM] in phosphate buffer pH 7.4 [mM]
"NCCCNc1nc2c(Br)c(Br)c(Br)c(Br)c2[nH]1 [Compound 11, N-(3-aminopropyl)-4,5,6,7-tetrabromo-1H-benzo[d]imidazol-2-amine]",12,over 93%,2,
"CN(C)c1nc2c(Br)c(Br)c(Br)c(Br)c2[nH]1 [DMAT, reference compound]",,,,<0.01
